# Results as given in patent US20040006103A1, “Use of chloroquine, hydroxychloroquine and 4 amino-quinolinic derivatives to obtain a drug for the anti retroviral therapy, active towards HIV sensitive strains and towards HIV strains which are resistant to both nucleosidic and non-nucleosidic reverse transcriptase inhibitors and to proteases …” (VALPHARMA S.A., priority 2002, published 2004).
# Read-outs that look alike come from different tables or passages of the source.
# Tests used:
# [1] = tested on: HIV-1 clinical isolated, characterised by mutations on the protease gene inducing geno-phenotypic resistance to NFV; experiment: p24 production susceptibility test, Table 10, H-9 cells; format: cell-based; conditions: for S.I. HCQ / Fen. HCQ (fold): H-9; for S.I. HCQ: I.C.50/E.C.50; for Fen. HCQ (fold): ratio to HIV-IIIB; for EC50: Human immunodeficiency virus 1, H9, H-9, read-out: E.C.50 HCQ
# Excerpt: (§1) For the phenotype of the nucleosidic, non-nucleosidic and proteases inhibitors was utilised a method which consider the use of human PBMC and the protocol standardised by the AIDS Clinical Trials Group, after verifying the genotype by sequence analysis.
# (§2) In order to assay in vitro the susceptibility to chloroquine and hydroxychloroquine of the viral strains, it was used the protocol of the ACTG which is characterised by the measure, of the production of antigen p24 in strongly infected cells.
# (§3) The susceptibility of the viral strains to chemotherapics was determined in cell cultures, prepared in 96 wells microplates, using, for the infection, 0.1 MOI.
# (§4) The supernatant of the infected cultures (either in absence or in presence of different concentrations of chemotherapic) were tested for the production of p24 after 7 days, using an ELISA test which is commercially available.
# (§5) The concentrations of chloroquine and hydroxychloroquine tested ranged from 0.5 to 15 uM. At the same time non-infected cells were incubated with concentrations of chloroquine and hydroxychloroquine ranging from 0 to 50 uM to evaluate the toxicity of the compound.
# (§6) After 4 day from the infection, half the cellular medium was replaced with a medium containing the corresponding dilution of chloroquine and hydroxychloroquine. The percentage of inhibition of the HIV replication, induced by chloroquine and hydroxychloroquine, was determined, after 7 day from the infection, comparing the levels of p24 of this cultures and that of the control, infected and not treated with chloroquine and hydroxychloroquine.
# (§7) Therefore, the E.C.50 of chloroquine and hydroxychloroquine expresses the concentration of chemotherapic that inhibits the 50% of production of p24 and the values were calculated using linear and non linear regression analysis (the significativity for the non linear regression was R^2>0.95).
# (§8) In the same experimental conditions and in the same day, but with similar concentrations of chloroquine and hydroxychloroquine, it was evaluated the vitality of the infect cell cultures, and this was expressed as I.C.50.
# (§9) I.C.50 (Inhibitory Concentration) indicates the concentration of the chemotherapic agent inhibiting the vitality of the cell cultures at a rate of 50%, when there is not infection.
# [2] = tested on: HIV-1 strains cultivated in PBMC and isolated from patient naive to the treatment; experiment: p24 production susceptibility test (ACTG protocol), Table 11; format: cell-based; conditions: for EC50: Human immunodeficiency virus 1, PBMC; for S.I. HCQ: I.C.50/E.C.50
# Protocol: as §2, §3, §4, §5, §6, §7, §8, §9
# [3] = tested on: HIV-1 strains geno-phenotypically resistant to EFV; experiment: p24 production susceptibility test, Table 7, MT-2 cells; format: cell-based; conditions: for EC50: Human immunodeficiency virus 1, MT2, MT-2, read-out: E.C.50 HCQ; for S.I. HCQ / Fen. HCQ (fold): MT-2; for S.I. HCQ: I.C.50/E.C.50; for Fen. HCQ (fold): ratio to HIV-IIIB
# Excerpt: as §1, §2, §3, §4, §5, §6, §7, §8, §9
# [4] = tested on: HIV-1 clinical isolated, characterised by mutations in the RT gene inducing geno-phenotypic resistance to d4T; experiment: p24 production susceptibility test (ACTG protocol), Table 4; format: cell-based; conditions: for EC50: Human immunodeficiency virus 1, PBMC, read-out: E.C.50 HCQ; for S.I. HCQ / Fen. HCQ (fold): PBMC; for S.I. HCQ: I.C.50/E.C.50; for Fen. HCQ (fold): ratio to HIV-IIIB
# Excerpt: as §1, §2, §3, §4, §5, §6, §7, §8, §9
# [5] = tested on: HIV clinical isolated, characterised by mutations in the RT gene inducing geno-phenotypic resistance to ddI; experiment: p24 production susceptibility test (ACTG protocol), Table 2; format: cell-based, HIV-1; conditions: for EC50: Human immunodeficiency virus 1, PBMC, read-out: E.C.50 HCQ; for S.I. HCQ / Fen HCQ (fold): PBMC; for S.I. HCQ: I.C.50/E.C.50; for Fen HCQ (fold): ratio to HIV-IIIB
# Excerpt: as §1, §2, §3, §4, §5, §6, §7, §8, §9
# [6] = tested on: HIV-1 strains geno-phenotypically resistant to NVP; experiment: p24 production susceptibility test, Table 6, MT-2 cells; format: cell-based; conditions: for EC50: Human immunodeficiency virus 1, MT2, MT-2, read-out: E.C.50 HCQ; for S.I. HCQ / Fen. HCQ (fold): MT-2; for S.I. HCQ: I.C.50/E.C.50; for Fen. HCQ (fold): ratio to HIV-IIIB
# Excerpt: as §1, §2, §3, §4, §5, §6, §7, §8, §9
# [7] = Gen. K65R F77L Y115F Q151M M184V
# [8] = Gen M4IL M184V L210W R211KL 214F T215Y
smiles,measurement,setting,value
"CCN(CCO)CCCC(C)Nc1ccnc2cc(Cl)ccc12 (centres unmarked) [HCQ, hydroxychloroquine]",S.I. HCQ,[1]; Gen. D30N,4.4
same,Fen. HCQ (fold),[1]; Gen. D30N,1.2X fold
same,S.I. HCQ,[1]; Gen. V82A,5.5
same,Fen. HCQ (fold),[1]; Gen. V82A,1.3X fold
same,EC50,[1]; Gen. D30N,2.2 µM
same,EC50,[1]; Gen. V82A,2.5 µM
same,EC50,"[2]; HIV-1 virus sensitive to the anti-retroviral treatment, range over each experiment, read-out: E.C.50",1.5 to 3.5 µM
same,EC50,"[2]; PBMC, Virus N°1, read-out: E.C.50 HCQ",2.2 µM
same,EC50,"[2]; PBMC, Virus N°2, read-out: E.C.50 HCQ",1.8 µM
same,EC50,"[2]; PBMC, Virus N°3, read-out: E.C.50 HCQ",1.5 µM
same,EC50,"[2]; PBMC, Virus N°4, read-out: E.C.50 HCQ",2.2 µM
same,EC50,"[2]; PBMC, Virus N°5, read-out: E.C.50 HCQ",1.8 µM
same,S.I. HCQ,"[2]; PBMC, Virus N°1",4.5
same,S.I. HCQ,"[2]; PBMC, Virus N°2",5
same,S.I. HCQ,"[2]; PBMC, Virus N°3",6
same,S.I. HCQ,"[2]; PBMC, Virus N°4",4
same,S.I. HCQ,"[2]; PBMC, Virus N°5",4.5
same,EC50,[3]; Gen. K101D K103N,2.5 µM
same,EC50,[3]; Gen. K103N V108D,2.8 µM
same,EC50,[3]; Gen. K103N Y181C,2.5 µM
same,EC50,[3]; Gen. K103N,2.8 µM
same,EC50,[3]; Gen. L100I K103N,3.2 µM
same,EC50,[3]; Gen. Y181C,1.5 µM
same,S.I. HCQ,[3]; Gen. K101D K103N,8.8
same,Fen. HCQ (fold),[3]; Gen. K101D K103N,1.6X fold
same,S.I. HCQ,[3]; Gen. K103N V108D,7.8
same,Fen. HCQ (fold),[3]; Gen. K103N V108D,1.8X fold
same,S.I. HCQ,[3]; Gen. K103N Y181C,8.5
same,Fen. HCQ (fold),[3]; Gen. K103N Y181C,1.6X fold
same,S.I. HCQ,[3]; Gen. K103N,8.7
same,Fen. HCQ (fold),[3]; Gen. K103N,1.8X fold
same,S.I. HCQ,[3]; Gen. L100I K103N,6
same,Fen. HCQ (fold),[3]; Gen. L100I K103N,2.1X fold
same,S.I. HCQ,[3]; Gen. Y181C,8.7
same,Fen. HCQ (fold),[3]; Gen. Y181C,1X fold
same,EC50,[4]; [7],3.5 µM
same,EC50,[4]; Gen. K65R F116Y Q151M,3 µM
same,EC50,[4]; Gen. M41I T69SSS T215Y,2.5 µM
same,EC50,[4]; Gen. T69SSS T215Y,3 µM
same,EC50,[4]; Gen. V75I F77L F116Y Q151M,3 µM
same,S.I. HCQ,[4]; [7],3.3
same,Fen. HCQ (fold),[4]; [7],2.3X fold
same,S.I. HCQ,[4]; Gen. K65R F116Y Q151M,3.3
same,Fen. HCQ (fold),[4]; Gen. K65R F116Y Q151M,2.2X fold
same,S.I. HCQ,[4]; Gen. M41I T69SSS T215Y,3.6
same,Fen. HCQ (fold),[4]; Gen. M41I T69SSS T215Y,1.6X fold
same,S.I. HCQ,[4]; Gen. T69SSS T215Y,3.3
same,Fen. HCQ (fold),[4]; Gen. T69SSS T215Y,2X fold
same,S.I. HCQ,[4]; Gen. V75I F77L F116Y Q151M,4
same,Fen. HCQ (fold),[4]; Gen. V75I F77L F116Y Q151M,2X fold
same,EC50,[5]; Gen D67N K70R M184V T215Y,2.5 µM
same,EC50,[5]; Gen D67N K70R T215F K70R,2.5 µM
same,EC50,[5]; Gen K70R T215F K219Q,2 µM
same,EC50,[5]; [8],2.5 µM
same,EC50,[5]; Gen M41I T215F,2.5 µM
same,EC50,[5]; Gen M41L D67N K70R M184V T215Y,2.5 µM
same,EC50,[5]; Gen M41L D67N K70R T215Y,2.8 µM
same,S.I. HCQ,[5]; Gen D67N K70R M184V T215Y,4.5
same,Fen HCQ (fold),[5]; Gen D67N K70R M184V T215Y,1.3X fold
same,S.I. HCQ,[5]; Gen D67N K70R T215F K70R,3.4
same,Fen HCQ (fold),[5]; Gen D67N K70R T215F K70R,1.1X fold
same,S.I. HCQ,[5]; Gen K70R T215F K219Q,5
same,Fen HCQ (fold),[5]; Gen K70R T215F K219Q,0.8X fold
same,S.I. HCQ,[5]; [8],4
same,Fen HCQ (fold),[5]; [8],1.3X fold
same,S.I. HCQ,[5]; Gen M41I T215F,4.5
same,Fen HCQ (fold),[5]; Gen M41I T215F,1.3X fold
same,S.I. HCQ,[5]; Gen M41L D67N K70R M184V T215Y,3.6
same,Fen HCQ (fold),[5]; Gen M41L D67N K70R M184V T215Y,1.3X fold
same,S.I. HCQ,[5]; Gen M41L D67N K70R T215Y,3.4
same,Fen HCQ (fold),[5]; Gen M41L D67N K70R T215Y,1.1X fold
same,EC50,[6]; Gen. G190E,3.5 µM
same,EC50,[6]; Gen. K103N,2.8 µM
same,EC50,[6]; Gen. V106A,3.2 µM
same,EC50,[6]; Gen. Y181C,3.2 µM
same,S.I. HCQ,[6]; Gen. G190E,6
same,Fen. HCQ (fold),[6]; Gen. G190E,1.9X fold
same,S.I. HCQ,[6]; Gen. K103N,7.8
same,Fen. HCQ (fold),[6]; Gen. K103N,1.5X fold
same,S.I. HCQ,[6]; Gen. V106A,6.2
same,Fen. HCQ (fold),[6]; Gen. V106A,1.7X fold
same,S.I. HCQ,[6]; Gen. Y181C,6.1
same,Fen. HCQ (fold),[6]; Gen. Y181C,1.7X fold
